Paper PMC8710297, “Identification of potent SENP1 inhibitors that inactivate SENP1/JAK2/STAT signaling pathway and overcome platinum drug resistance in ovarian cancer” (Clinical and Translational Medicine, 2021)

System: IGROV1 CR xenograft
Assay: IGROV1 CR xenograft tumor growth
Type: in vivo
Conditions: nude mice, i.p., cisplatin 8 mg/kg/2 days + UA 10 mg/kg/2 days or UAMMC9 2 mg/kg/2 days, compared to single agents
Experimental: Importantly, the treatments had minor toxicity (Figures S3B–D).
Cell viability was measured by SRB assay. […] Data were represented as mean ± SD (n = 3). (B) Colony formation assay in cells treated as indicated. […] (D) Growth curves of xenograft tumors are shown in (C). Data are represented as means ± SEM, n = 6 mice/group. **p < 0.01. […] (F) IGROV1 CR xenograft tumor growth curve by indicated treatments. Data are represented as means ± SD, n = 6 tumors/group. **p < 0.01. (G) Immunohistochemistry (IHC) staining against pSTAT3 antibodies of tumor samples from four groups of mice (magnification, 200x) (Upper). […]
ac etoni tri le (solvent A) and 0.02% phosphoric ac id in 10% acetonitrile in wate r (solvent B) at a constant solvent flow rate of 1.0 mL/min.
9. Molecular docking and dynamics simulation
Docking and scoring were performed by using Schrödinger software pa c ka ge. Lig Prep wa s incorp orated to refin e UA (ligand). Ionization state s within pH=7.0±2.0 were selected fo r docking. SENP1 crystal structu re was downloaded from protein datab ank (PDB ID: 2IY0, http :// ww w.rcsb.org /). […] The protein wa s added hyd ro g e n atom s and charges, removed wate rs by Protein Preparation Wi zard module. […] The extended sampling method wa s selected fo r confor mationa l search, and the resi du es in the ra n ge of ligand 5 Å we re further optimized. […]
6 tumors per group were assessed. […]

Row | Compound | reduction of tumor growth in combination with cisplatin
1 | C[C@H]1[C@H](C)CC[C@]2(C(=O)O)CC[C@]3(C)C(=CC[C@@H]4[C@@]5(C)CC[C@H](O)C(C)(C)[C@@H]5CC[C@]43C)[C@H]12 [UA, ursolic acid, reference compound] | remarkable synergy
2 | C[C@H]1[C@H](C)CC[C@]2(C(=O)NCC(=O)N(C)CCO)CC[C@]3(C)C(=CC[C@@H]4[C@@]5(C)CC[C@H](O)C(C)(C)[C@@H]5CC[C@]43C)[C@H]12 [UAMMC9] | remarkable synergy
